Source: patent US20150307938A1, “METHOD TO IDENTIFY A NOVEL CLASS OF IMMUNOLOGIC ADJUVANTS” (Lancell, L.L.C., priority 2011, published 2015)

System: skin
Assay: Affymetrix microarray of skin, DBP-4 hr and analogs vs. untreated; gene selection by log-2 fold change, Wilcoxon, Kendall tau (Tables 8, 9)
Format: in vivo, mouse

CCN(CC)C(=O)c1cccc(C)c1 [DEET, N,N-diethyl-toluamide]
Log2 Expression Level (gene #1 of Table 8): 6.74 | Log2 Expression Level (gene #2 of Table 8): 6.44 | Log2 Expression Level (gene #3 of Table 8): 9.66 | Log2 Expression Level (gene #4 of Table 8): 9.66 | Log2 Expression Level (gene #5 of Table 8): 8.20 | Log2 Expression Level (gene #6 of Table 8): 7.42 | Log2 Expression Level (gene #7 of Table 8): 6.76 | Log2 Expression Level (gene #8 of Table 8): 7.42 | Log2 Expression Level (gene #9 of Table 8): 7.42 | Log2 Expression Level (gene #10 of Table 8): 7.42 | Log2 Expression Level (gene #11 of Table 8): 6.76 | Log2 Expression Level (gene #12 of Table 8): 6.76 | Log2 Expression Level (gene #13 of Table 8): 6.76 | Log2 Expression Level (gene #14 of Table 8): 5.31 | Log2 Expression Level (gene #15 of Table 8): 5.31 | Log2 Expression Level (gene #16 of Table 8): 7.68 | Log2 Expression Level (gene #17 of Table 8): 9.60 | Log2 Expression Level (gene #18 of Table 8): 9.60 | Log2 Expression Level (gene #19 of Table 8): 10.04 | Log2 Expression Level (gene #20 of Table 8): 11.87 | Log2 Expression Level (gene #21 of Table 8): 9.61 | Log2 Expression Level (gene #22 of Table 8): 8.47 | Log2 Expression Level (gene #23 of Table 8): 7.75 | Log2 Expression Level (gene #24 of Table 8): 8.21 | Log2 Expression Level (gene #25 of Table 8): 8.21 | Log2 Expression Level (gene #26 of Table 8): 8.83 | Log2 Expression Level (gene #27 of Table 8): 8.83 | Log2 Expression Level (gene #28 of Table 8): 8.83 | Log2 Expression Level (gene #29 of Table 8): 7.20 | Log2 Expression Level (gene #30 of Table 8): 9.06 | Log2 Expression Level (gene #31 of Table 8): 9.06 | Log2 Expression Level (gene #32 of Table 8): 9.06 | Log2 Expression Level (gene #33 of Table 8): 6.10 | Log2 Expression Level (gene #34 of Table 8): 7.43 | Log2 Expression Level (gene #35 of Table 8): 7.43 | Log2 Expression Level (gene #36 of Table 8): 9.66 | Log2 Expression Level (gene #37 of Table 8): 9.66 | Log2 Expression Level (gene #38 of Table 8): 9.66 | Log2 Expression Level (gene #39 of Table 8): 8.11 | Log2 Expression Level (gene #40 of Table 8): 8.22 | Log2 Expression Level (gene #41 of Table 8): 8.43 | Log2 Expression Level (gene #42 of Table 8): 7.97 | Log2 Expression Level (gene #43 of Table 8): 7.97 | Log2 Expression Level (gene #44 of Table 8): 8.43 | Log2 Expression Level (gene #45 of Table 8): 7.97 | Log2 Expression Level (gene #46 of Table 8): 8.43 | Log2 Expression Level (gene #47 of Table 8): 9.23 | Log2 Expression Level (gene #48 of Table 8): 9.23 | Log2 Expression Level (gene #49 of Table 8): 9.23 | Log2 Expression Level (gene #50 of Table 8): 10.17 | Log2 Expression Level (gene #51 of Table 8): 8.15 | Log2 Expression Level (gene #52 of Table 8): 10.64 | Log2 Expression Level (gene #53 of Table 8): 9.22 | Log2 Expression Level (gene #54 of Table 8): 10.01 | Log2 Expression Level (gene #55 of Table 8): 8.18 | Log2 Expression Level (gene #56 of Table 8): 10.41 | Log2 Expression Level (gene #57 of Table 8): 9.06 | Log2 Expression Level (gene #58 of Table 8): 9.46 | Log2 Expression Level (gene #59 of Table 8): 8.46 | Log2 Expression Level (gene #60 of Table 8): 7.24 | Log2 Expression Level (gene #61 of Table 8): 12.16 | Log2 Expression Level (gene #62 of Table 8): 8.52 | Log2 Expression Level (gene #63 of Table 8): 11.76 | Log2 Expression Level (gene #64 of Table 8): 11.40 | Log2 Expression Level (gene #65 of Table 8): 8.25 | Log2 Expression Level (gene #66 of Table 8): 9.07 | Log2 Expression Level (gene #67 of Table 8): 5.71 | Log2 Expression Level (gene #68 of Table 8): 10.87 | Log2 Expression Level (gene #69 of Table 8): 7.06 | Log2 Expression Level (gene #70 of Table 8): 5.72 | Log2 Expression Level (gene #71 of Table 8): 7.84 | Log2 Expression Level (gene #72 of Table 8): 9.65 | Log2 Expression Level (gene #73 of Table 8): 8.88 | Log2 Expression Level (gene #74 of Table 8): 7.48 | Log2 Expression Level (gene #75 of Table 8): 10.04 | Log2 Expression Level (gene #76 of Table 8): 5.76 | Log2 Expression Level (gene #77 of Table 8): 9.62 | Log2 Expression Level (gene #78 of Table 8): 9.85 | Log2 Expression Level (gene #79 of Table 8): 8.03 | Log2 Expression Level (gene #80 of Table 8): 13.18 | Log2 Expression Level (gene #81 of Table 8): 6.94 | Log2 Expression Level (gene #82 of Table 8): 6.28 | Log2 Expression Level (gene #83 of Table 8): 8.09 | Log2 Expression Level (gene #84 of Table 8): 8.70 | Log2 Expression Level (gene #85 of Table 8): 9.57 | Log2 Expression Level (gene #86 of Table 8): 8.02 | Log2 Expression Level (gene #87 of Table 8): 11.32 | Log2 Expression Level (gene #88 of Table 8): 10.03 | Log2 Expression Level (gene #89 of Table 8): 6.25 | Log2 Expression Level (gene #90 of Table 8): 11.13 | Log2 Expression Level (gene #91 of Table 8): 9.01 | Log2 Expression Level (gene #92 of Table 8): 7.14 | Log2 Expression Level (gene #93 of Table 8): 10.13 | Log2 Expression Level (gene #94 of Table 8): 9.19 | Log2 Expression Level (gene #95 of Table 8): 7.20 | Log2 Expression Level (gene #96 of Table 8): 9.02 | Log2 Expression Level (gene #97 of Table 8): 5.86 | Log2 Expression Level (gene #98 of Table 8): 6.82 | Log2 Expression Level (gene #99 of Table 8): 10.05 | Log2 Expression Level (gene #100 of Table 8): 8.86

CC(C)=O [Acetone]
Log2 Expression Level (gene #1 of Table 8): 5.63 | Log2 Expression Level (gene #2 of Table 8): 7.13 | Log2 Expression Level (gene #3 of Table 8): 8.73 | Log2 Expression Level (gene #4 of Table 8): 8.73 | Log2 Expression Level (gene #5 of Table 8): 6.36 | Log2 Expression Level (gene #6 of Table 8): 5.62 | Log2 Expression Level (gene #7 of Table 8): 5.07 | Log2 Expression Level (gene #8 of Table 8): 5.62 | Log2 Expression Level (gene #9 of Table 8): 5.62 | Log2 Expression Level (gene #10 of Table 8): 5.62 | Log2 Expression Level (gene #11 of Table 8): 5.07 | Log2 Expression Level (gene #12 of Table 8): 5.07 | Log2 Expression Level (gene #13 of Table 8): 5.07 | Log2 Expression Level (gene #14 of Table 8): 4.90 | Log2 Expression Level (gene #15 of Table 8): 4.90 | Log2 Expression Level (gene #16 of Table 8): 6.15 | Log2 Expression Level (gene #17 of Table 8): 8.79 | Log2 Expression Level (gene #18 of Table 8): 8.79 | Log2 Expression Level (gene #19 of Table 8): 8.22 | Log2 Expression Level (gene #20 of Table 8): 7.12 | Log2 Expression Level (gene #21 of Table 8): 7.81 | Log2 Expression Level (gene #22 of Table 8): 7.76 | Log2 Expression Level (gene #23 of Table 8): 5.76 | Log2 Expression Level (gene #24 of Table 8): 6.97 | Log2 Expression Level (gene #25 of Table 8): 6.97 | Log2 Expression Level (gene #26 of Table 8): 6.97 | Log2 Expression Level (gene #27 of Table 8): 6.97 | Log2 Expression Level (gene #28 of Table 8): 6.97 | Log2 Expression Level (gene #29 of Table 8): 4.96 | Log2 Expression Level (gene #30 of Table 8): 8.52 | Log2 Expression Level (gene #31 of Table 8): 8.52 | Log2 Expression Level (gene #32 of Table 8): 8.52 | Log2 Expression Level (gene #33 of Table 8): 5.65 | Log2 Expression Level (gene #34 of Table 8): 6.46 | Log2 Expression Level (gene #35 of Table 8): 6.46 | Log2 Expression Level (gene #36 of Table 8): 8.73 | Log2 Expression Level (gene #37 of Table 8): 8.73 | Log2 Expression Level (gene #38 of Table 8): 8.73 | Log2 Expression Level (gene #39 of Table 8): 7.16 | Log2 Expression Level (gene #40 of Table 8): 7.23 | Log2 Expression Level (gene #41 of Table 8): 7.42 | Log2 Expression Level (gene #42 of Table 8): 7.03 | Log2 Expression Level (gene #43 of Table 8): 7.03 | Log2 Expression Level (gene #44 of Table 8): 7.42 | Log2 Expression Level (gene #45 of Table 8): 7.03 | Log2 Expression Level (gene #46 of Table 8): 7.42 | Log2 Expression Level (gene #47 of Table 8): 7.47 | Log2 Expression Level (gene #48 of Table 8): 7.47 | Log2 Expression Level (gene #49 of Table 8): 7.47 | Log2 Expression Level (gene #50 of Table 8): 7.97 | Log2 Expression Level (gene #51 of Table 8): 7.28 | Log2 Expression Level (gene #52 of Table 8): 9.55 | Log2 Expression Level (gene #53 of Table 8): 7.74 | Log2 Expression Level (gene #54 of Table 8): 9.23 | Log2 Expression Level (gene #55 of Table 8): 6.67 | Log2 Expression Level (gene #56 of Table 8): 8.58 | Log2 Expression Level (gene #57 of Table 8): 8.52 | Log2 Expression Level (gene #58 of Table 8): 8.50 | Log2 Expression Level (gene #59 of Table 8): 8.28 | Log2 Expression Level (gene #60 of Table 8): 6.59 | Log2 Expression Level (gene #61 of Table 8): 11.19 | Log2 Expression Level (gene #62 of Table 8): 7.64 | Log2 Expression Level (gene #63 of Table 8): 10.28 | Log2 Expression Level (gene #64 of Table 8): 10.06 | Log2 Expression Level (gene #65 of Table 8): 6.46 | Log2 Expression Level (gene #66 of Table 8): 7.87 | Log2 Expression Level (gene #67 of Table 8): 4.12 | Log2 Expression Level (gene #68 of Table 8): 6.73 | Log2 Expression Level (gene #69 of Table 8): 4.99 | Log2 Expression Level (gene #70 of Table 8): 4.18 | Log2 Expression Level (gene #71 of Table 8): 6.68 | Log2 Expression Level (gene #72 of Table 8): 7.93 | Log2 Expression Level (gene #73 of Table 8): 5.55 | Log2 Expression Level (gene #74 of Table 8): 7.00 | Log2 Expression Level (gene #75 of Table 8): 8.22 | Log2 Expression Level (gene #76 of Table 8): 4.30 | Log2 Expression Level (gene #77 of Table 8): 8.48 | Log2 Expression Level (gene #78 of Table 8): 9.31 | Log2 Expression Level (gene #79 of Table 8): 6.49 | Log2 Expression Level (gene #80 of Table 8): 12.42 | Log2 Expression Level (gene #81 of Table 8): 5.50 | Log2 Expression Level (gene #82 of Table 8): 5.03 | Log2 Expression Level (gene #83 of Table 8): 6.32 | Log2 Expression Level (gene #84 of Table 8): 6.04 | Log2 Expression Level (gene #85 of Table 8): 4.71 | Log2 Expression Level (gene #86 of Table 8): 6.08 | Log2 Expression Level (gene #87 of Table 8): 8.85 | Log2 Expression Level (gene #88 of Table 8): 4.54 | Log2 Expression Level (gene #89 of Table 8): 5.23 | Log2 Expression Level (gene #90 of Table 8): 9.45 | Log2 Expression Level (gene #91 of Table 8): 6.14 | Log2 Expression Level (gene #92 of Table 8): 6.80 | Log2 Expression Level (gene #93 of Table 8): 8.25 | Log2 Expression Level (gene #94 of Table 8): 7.10 | Log2 Expression Level (gene #95 of Table 8): 4.96 | Log2 Expression Level (gene #96 of Table 8): 6.62 | Log2 Expression Level (gene #97 of Table 8): 5.16 | Log2 Expression Level (gene #98 of Table 8): 4.29 | Log2 Expression Level (gene #99 of Table 8): 8.55 | Log2 Expression Level (gene #100 of Table 8): 6.49
